# Assay results published in patent US20170209547A1, “N[…] USE IN […] AND ANXIETY IN PETS” (DOMES PHARMA, priority 2016, published 2017).
# Tested on: male Wistar Han rats
# Assay: EDC test (anxiety test with electric probe burying), global anxiety score
# Type: in vivo, rat
# Settings: Diazepam 3 mg/kg p.o. 60 min before the test
# Protocol: Forty male Wistar Han rats (Crl:WI(Han), Charles River Laboratories, L'Arbresle, France), weighing from 250 to 275 g were used. Upon receipt, the rats were marked and split into groups of 3 or 4 animals in polycarbonate cages (Eurostandard type IIIH, 425×266×185 mm, Tecniplast, Lyon, France). The animals were housed in a climate-controlled animal house, at a temperature of […] and relative humidity of 50±20%. The rats had food (Teklad Global 2016, Harlan, Ganat, France) and drink ad libitum and were held in a day-night cycle inverted by 12 hours (day from 20:00 to 08:00). […]
# The experimental device was placed in a room lit with a low intensity red light. A video camera connected to a digital recorder saved all behavioral sequences so that behavior of interest could be measured later. […]
# The electric probe was inserted into the cage before the start of the test. […] After the electric shock, the rat's behavior was recorded for 5 min. […]
# The following behaviors were quantified from video recordings made during the tests: • duration probe was buried; • number of stretches in the direction of the probe; • number of approaches to the probe; • number of flights from the probe. […]
compound,measurement,setting,value
CN1C(=O)CN=C(c2ccccc2)c2cc(Cl)ccc21 [Diazepam],Global anxiety score vs. vehicle group (Mann-Whitney test),,significantly lower
same,"Global anxiety score, Median","n = 9, Vehicle median 111",41
